From patent publication US12006328B2, “Thieno[2,3-d]pyrimidin-4-one derivatives as NMDAR modulators and uses related thereto” (Emory University, priority 2014, dated 2024)

Assays:
Type in all cases: cell-based
[1] = molecular target: GluN2B-containing NMDA receptors (Homo sapiens, UniProt Q13224); assay: Two-electrode voltage-clamp recordings from Xenopus laevis oocytes, GluN2B; settings: for I10 μM/ICONTROL (mean ± SEM, %) Glu N2B: 10 μM test compound with glutamate 100 μM and glycine 30 μM, Tables 1-5; for I10 μM/ICONTROL (mean ± SEM, %) Glu N2B / maximal potentiation Glu N2B: percent of response without compound; for IC50 / maximal potentiation Glu N2B: Table 2; for IC50: glutamate 100 μM, glycine 30 μM, Hill fit, read-out: IC50 Glu N2B; for maximal potentiation Glu N2B: in brackets below IC50
Experimental: (§1) Xenopus laevis oocytes were injected with cRNA encoding the NMDA receptor subunits. Two to seven days after injection, two-electrode voltage-clamp recordings were performed. Extracellular solutions were made from a solutions containing (in mM) 90 NaCl, 3 KCl, 10 HEPES, 0.5 BaCl2, 0.01 EDTA (pH 7.4 with NaOH). Voltage and current electrodes were filled with 0.3 M and 3.0 M KCl, respectively.
(§2) Potency was determined by adding increasing concentrations of test compound to saturating concentrations of glutamate (100 μM) and glycine (30 μM), and the response amplitude measured. The response in the presence of each concentration of test compound plus agonists was expressed as a percent of the response in the absence of test compound.

[2] = molecular target: GluN2C-containing NMDA receptors (Homo sapiens, UniProt Q14957); assay: Two-electrode voltage-clamp recordings from Xenopus laevis oocytes, GluN2C; settings: for I10 μM/ICONTROL (mean ± SEM, %) Glu N2C: 10 μM test compound with glutamate 100 μM and glycine 30 μM, Tables 1-5; for I10 μM/ICONTROL (mean ± SEM, %) Glu N2C / maximal potentiation Glu N2C: percent of response without compound; for IC50 / maximal potentiation Glu N2C: Table 2; for IC50: glutamate 100 μM, glycine 30 μM, Hill fit, read-out: IC50 Glu N2C; for maximal potentiation Glu N2C: in brackets below IC50
Experimental: as §1, §2

[3] = molecular target: GluN2D-containing NMDA receptors (Homo sapiens, UniProt O15399); assay: Two-electrode voltage-clamp recordings from Xenopus laevis oocytes, GluN2D; settings: for I10 μM/ICONTROL (mean ± SEM, %) Glu N2D: 10 μM test compound with glutamate 100 μM and glycine 30 μM, Tables 1-5; for I10 μM/ICONTROL (mean ± SEM, %) Glu N2D / maximal potentiation Glu N2D: percent of response without compound; for IC50 / maximal potentiation Glu N2D: Table 2; for IC50: glutamate 100 μM, glycine 30 μM, Hill fit, read-out: IC50 Glu N2D; for maximal potentiation Glu N2D: in brackets below IC50
Experimental: as §1, §2

Sequence of GluN2D-containing NMDA receptors (O15399 28-1336, other chains not shown): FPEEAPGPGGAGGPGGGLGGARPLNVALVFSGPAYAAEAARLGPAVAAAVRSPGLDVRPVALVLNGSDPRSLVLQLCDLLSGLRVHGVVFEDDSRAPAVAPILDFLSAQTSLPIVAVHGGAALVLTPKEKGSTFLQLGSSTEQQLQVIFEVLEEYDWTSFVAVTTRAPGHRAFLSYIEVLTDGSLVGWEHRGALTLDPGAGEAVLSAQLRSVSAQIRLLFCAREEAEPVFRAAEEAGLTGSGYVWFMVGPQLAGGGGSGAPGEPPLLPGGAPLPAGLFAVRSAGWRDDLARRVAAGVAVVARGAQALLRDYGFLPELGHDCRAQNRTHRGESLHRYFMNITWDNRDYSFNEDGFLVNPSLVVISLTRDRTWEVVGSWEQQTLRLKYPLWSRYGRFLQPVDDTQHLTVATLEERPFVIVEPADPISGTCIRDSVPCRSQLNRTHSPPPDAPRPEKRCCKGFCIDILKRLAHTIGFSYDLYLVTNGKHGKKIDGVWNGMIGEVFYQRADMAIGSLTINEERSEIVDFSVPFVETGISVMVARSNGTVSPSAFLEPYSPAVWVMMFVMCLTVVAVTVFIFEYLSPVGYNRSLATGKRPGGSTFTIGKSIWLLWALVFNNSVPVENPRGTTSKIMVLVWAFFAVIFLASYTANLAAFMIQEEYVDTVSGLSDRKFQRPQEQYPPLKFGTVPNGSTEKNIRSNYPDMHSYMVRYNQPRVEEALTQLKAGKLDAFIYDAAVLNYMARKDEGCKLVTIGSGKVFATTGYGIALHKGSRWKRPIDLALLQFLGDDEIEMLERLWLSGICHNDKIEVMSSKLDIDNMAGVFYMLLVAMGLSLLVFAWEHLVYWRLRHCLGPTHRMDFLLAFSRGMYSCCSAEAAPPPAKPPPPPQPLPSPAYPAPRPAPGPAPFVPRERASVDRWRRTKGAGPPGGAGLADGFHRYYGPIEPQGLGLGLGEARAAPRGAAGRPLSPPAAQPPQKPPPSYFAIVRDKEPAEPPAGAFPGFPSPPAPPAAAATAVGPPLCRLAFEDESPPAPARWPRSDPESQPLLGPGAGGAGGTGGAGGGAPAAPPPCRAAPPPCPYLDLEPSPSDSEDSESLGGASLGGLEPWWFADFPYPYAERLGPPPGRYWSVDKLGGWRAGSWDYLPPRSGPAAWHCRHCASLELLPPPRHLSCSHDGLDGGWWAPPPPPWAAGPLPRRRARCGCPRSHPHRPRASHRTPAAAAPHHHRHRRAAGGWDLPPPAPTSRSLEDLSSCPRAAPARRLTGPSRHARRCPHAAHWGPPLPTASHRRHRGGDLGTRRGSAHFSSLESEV
Sequence of GluN2C-containing NMDA receptors (Q14957 20-1233, other chains not shown): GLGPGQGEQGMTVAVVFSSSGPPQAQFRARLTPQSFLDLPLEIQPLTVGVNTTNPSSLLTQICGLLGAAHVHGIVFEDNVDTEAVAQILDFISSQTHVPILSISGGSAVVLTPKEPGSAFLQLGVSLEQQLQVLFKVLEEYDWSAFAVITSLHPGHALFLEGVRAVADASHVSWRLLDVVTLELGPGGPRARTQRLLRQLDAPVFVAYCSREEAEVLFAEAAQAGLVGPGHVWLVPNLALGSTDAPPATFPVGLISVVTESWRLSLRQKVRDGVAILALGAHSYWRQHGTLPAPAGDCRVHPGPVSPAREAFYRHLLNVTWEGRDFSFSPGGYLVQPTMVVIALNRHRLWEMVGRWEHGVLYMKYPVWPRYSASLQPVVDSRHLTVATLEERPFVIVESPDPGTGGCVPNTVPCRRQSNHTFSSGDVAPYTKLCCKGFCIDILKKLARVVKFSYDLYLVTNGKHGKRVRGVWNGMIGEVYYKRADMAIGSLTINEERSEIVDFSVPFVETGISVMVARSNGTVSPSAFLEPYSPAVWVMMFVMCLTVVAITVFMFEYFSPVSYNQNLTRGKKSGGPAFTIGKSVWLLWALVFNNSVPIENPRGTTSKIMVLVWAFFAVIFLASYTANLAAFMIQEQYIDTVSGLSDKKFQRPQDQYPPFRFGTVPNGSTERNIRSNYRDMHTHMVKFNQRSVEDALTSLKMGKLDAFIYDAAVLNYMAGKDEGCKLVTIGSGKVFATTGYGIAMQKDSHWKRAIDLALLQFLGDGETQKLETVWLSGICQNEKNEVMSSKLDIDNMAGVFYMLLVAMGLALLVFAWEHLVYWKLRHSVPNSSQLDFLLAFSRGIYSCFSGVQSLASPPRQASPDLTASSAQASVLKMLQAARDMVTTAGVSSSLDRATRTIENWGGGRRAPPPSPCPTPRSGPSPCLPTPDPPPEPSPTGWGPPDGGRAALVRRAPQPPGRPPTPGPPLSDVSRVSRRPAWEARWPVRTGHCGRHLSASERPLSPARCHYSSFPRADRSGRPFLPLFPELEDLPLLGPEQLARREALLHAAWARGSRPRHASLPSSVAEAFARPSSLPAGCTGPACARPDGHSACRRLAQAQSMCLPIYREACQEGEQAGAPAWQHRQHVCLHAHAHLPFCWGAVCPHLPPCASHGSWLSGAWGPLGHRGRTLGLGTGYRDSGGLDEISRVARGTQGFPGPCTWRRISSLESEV
Sequence of GluN2B-containing NMDA receptors (Q13224 27-1484, other chains not shown): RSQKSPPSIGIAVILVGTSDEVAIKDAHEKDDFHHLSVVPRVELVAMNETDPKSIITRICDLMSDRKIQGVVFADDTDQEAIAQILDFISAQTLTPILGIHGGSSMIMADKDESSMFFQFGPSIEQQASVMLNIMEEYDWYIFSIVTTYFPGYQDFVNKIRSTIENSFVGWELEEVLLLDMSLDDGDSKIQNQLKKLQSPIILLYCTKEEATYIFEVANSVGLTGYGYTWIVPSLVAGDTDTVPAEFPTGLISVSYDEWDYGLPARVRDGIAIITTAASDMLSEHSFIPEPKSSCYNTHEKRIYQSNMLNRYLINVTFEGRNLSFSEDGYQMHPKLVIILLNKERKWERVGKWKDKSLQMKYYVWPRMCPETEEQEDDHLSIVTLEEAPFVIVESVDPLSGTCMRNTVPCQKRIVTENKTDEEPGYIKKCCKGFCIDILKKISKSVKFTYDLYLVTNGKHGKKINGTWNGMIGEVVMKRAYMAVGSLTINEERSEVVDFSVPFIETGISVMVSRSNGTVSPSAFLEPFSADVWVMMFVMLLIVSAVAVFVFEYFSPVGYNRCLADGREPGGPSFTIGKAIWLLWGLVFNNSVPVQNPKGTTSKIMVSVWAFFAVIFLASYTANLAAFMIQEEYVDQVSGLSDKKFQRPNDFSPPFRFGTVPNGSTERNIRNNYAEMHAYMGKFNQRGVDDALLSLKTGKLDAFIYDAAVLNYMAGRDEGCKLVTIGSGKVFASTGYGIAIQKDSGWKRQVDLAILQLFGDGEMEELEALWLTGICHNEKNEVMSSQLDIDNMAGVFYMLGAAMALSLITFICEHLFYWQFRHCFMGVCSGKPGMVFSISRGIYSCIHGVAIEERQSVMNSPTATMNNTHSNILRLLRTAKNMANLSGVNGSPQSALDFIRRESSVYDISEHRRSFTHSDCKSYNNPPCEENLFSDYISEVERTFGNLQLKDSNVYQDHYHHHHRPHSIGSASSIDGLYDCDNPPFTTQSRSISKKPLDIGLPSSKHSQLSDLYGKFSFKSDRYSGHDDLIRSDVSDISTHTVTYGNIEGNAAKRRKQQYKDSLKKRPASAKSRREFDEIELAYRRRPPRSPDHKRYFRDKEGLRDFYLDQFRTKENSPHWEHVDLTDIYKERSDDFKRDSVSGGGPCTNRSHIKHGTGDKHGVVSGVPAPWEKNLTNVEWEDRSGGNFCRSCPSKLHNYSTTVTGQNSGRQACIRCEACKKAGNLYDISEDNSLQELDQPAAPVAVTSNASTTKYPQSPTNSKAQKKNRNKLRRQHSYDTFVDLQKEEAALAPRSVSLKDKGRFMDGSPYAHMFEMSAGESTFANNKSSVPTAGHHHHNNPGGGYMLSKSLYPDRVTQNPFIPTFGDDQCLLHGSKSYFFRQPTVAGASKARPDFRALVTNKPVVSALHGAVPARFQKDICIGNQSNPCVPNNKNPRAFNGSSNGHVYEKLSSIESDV

| SMILES | I10 μM/ICONTROL (mean ± SEM, %) Glu N2B [1] | I10 μM/ICONTROL (mean ± SEM, %) Glu N2C [2] | I10 μM/ICONTROL (mean ± SEM, %) Glu N2D [3] | IC50 [2] | maximal potentiation Glu N2C [2] | IC50 [3] | maximal potentiation Glu N2D [3] | IC50 [1] | maximal potentiation Glu N2B [1] |
| --- | --- | --- | --- | --- | --- | --- | --- | --- | --- |
| COC(=O)[C@@H]1CCCN1C(=O)Cn1cnc2sc(C)c(-c3ccc(Br)cc3)c2c1=O | 109 ± 4.9% | 159 ± 9.5% | 147 ± 12.7% | – | – | – | – | – | – |
| Cc1sc2ncn(Cc3cn(CCC4OCCCO4)nn3)c(=O)c2c1-c1cccc(Cl)c1 | 89 ± 2.5% | 88 ± 0.5% | 88 ± 3.4% | – | – | – | – | – | – |
| Cc1sc2ncn(Cc3cnnn3CCC3OCCCO3)c(=O)c2c1-c1cccc(Cl)c1 | 89 ± 2.5% | 92 ± 0.8% | 91 ± 1.3% | – | – | – | – | – | – |
| COCCn1cc(Cn2cnc3sc(C)c(-c4cccc(Cl)c4)c3c2=O)nn1 | 99 ± 1.9% | 93 ± 2.2% | 84 ± 3.4% | – | – | – | – | – | – |
| Cc1sc2ncn(CC(=O)N3CCCCC3)c(=O)c2c1-c1ccc(Br)c(Br)c1 [1 / 3,4-Br—Ph / Me / —Npiperidine] | – | 168 ± 13.9% | 143 ± 3.2% | 15 µM | (300) % | 94 µM | (600) % | – | – |
| Cc1sc2ncn(CC(=O)c3cccs3)c(=O)c2c1-c1cccc(Cl)c1 [1 / 3-Cl—Ph / Me / 2-thiophene] | 133 ± 3.9% | 125 ± 2.8% | 137 ± 6.3% | 19 µM | (293) % | 15 µM | (224) % | 14 µM | (207) % |

Second part, led by results:

| I10 μM/ICONTROL (mean ± SEM, %) Glu N2B [1] | I10 μM/ICONTROL (mean ± SEM, %) Glu N2C [2] | I10 μM/ICONTROL (mean ± SEM, %) Glu N2D [3] | IC50 [2] | maximal potentiation Glu N2C [2] | IC50 [3] | maximal potentiation Glu N2D [3] | SMILES | IC50 [1] | maximal potentiation Glu N2B [1] |
| --- | --- | --- | --- | --- | --- | --- | --- | --- | --- |
| – | 232 ± 14.4% | 179 ± 10.1% | 4.3 µM | (233) % | – | – | Cc1sc2ncn(CC(=O)N3CCCCC3)c(=O)c2c1-c1cc(Br)cc(Br)c1 [1 / 3,5-Br—Ph / Me / —Npiperidine] | – | – |
| – | – | – | 1.4 µM | (155) % | – | – | Cc1sc2ncn(CC(=O)N3CCCCC3)c(=O)c2c1-c1cc(C(F)(F)F)cc(C(F)(F)F)c1 [1 / 3,5-CF3—Ph / Me / —Npiperidine] | – | – |
| 127 ± 4.6% | 141 ± 7.0% | 136 ± 3.0% | 26 µM | (390) % | 16 µM | (245) % | CCOC(=O)Cn1cnc2sc(C)c(-c3cccc(Cl)c3)c2c1=O [1 / 3-Cl—Ph / Me / OEt] | 17 µM | (148) % |
| – | 96 ± 4.8% | 93 ± 1.8% | – | – | – | – | Cc1sc2ncn(CC(=O)c3ccc(Cl)cc3Cl)c(=O)c2c1-c1cccc(I)c1 [1 / 3-I—Ph / Me / 2,4-Cl—Ph] | – | – |
| – | 166 ± 9.5% | 133 ± 3.0% | 9.4 µM | (225) % | 14 µM | (191) % | Cc1sc2ncn(CC(=O)C3CCCC3)c(=O)c2c1-c1cccc(I)c1 [1 / 3-I—Ph / Me / -cyclopentyl] | – | – |
| – | 109 ± 4.9% | 119 ± 8.9% | – | – | – | – | CON(C)C(=O)Cn1cnc2sc(C)c(-c3cccc(I)c3)c2c1=O [1 / 3-I—Ph / Me / —N(OMe)Me] | – | – |
| – | 145 ± 11.4% | 124 ± 4.8% | – | – | – | – | Cc1sc2ncn(CC(=O)N3CCCCC3)c(=O)c2c1-c1cccc(I)c1 [1 / 3-I—Ph / Me / —Npiperidine] | – | – |
| – | – | – | 136 µM | (232) % | 52 µM | (163) % | Cc1sc2ncn(CC(=O)N3CCCCC3)c(=O)c2c1-c1ccc(Cl)cc1 [1 / 4-Cl—Ph / Me / —Npiperidine] | – | – |
| – | – | – | > 100 µM | – | 57 µM | (0) % | Cc1ccc(-c2csc3ncn(CC(=O)N4CCC4)c(=O)c23)cc1 [1 / 4-Me—Ph / H / —Nazetidine] | – | – |
